Data published in US7407775B2, “Method for identifying Listeria monocytogenes and culture medium” (Biomerieux S.A., priority 2000, dated 2008).

How the values were obtained:
Type in all cases: cell-based
Conditions in all cases: 37° C., substrate 250 mg/l
Listeria ivanovii 025 = experiment: Experiment 2: octanoate esterase substrates with different Indoxyl-based chromogenic markers; parameters: key: —: the symbol “-” corresponds to the absence of color or intensity; 0 corresponds to no activity; 0.1 corresponds to a trace of color; 0.5 corresponds to very pale coloration; 1 corresponds to clear but low-intensity coloration; 1.5 corresponds to a degree of coloration intermediate between scores 1 and 2; 2 corresponds to clear coloration of moderate intensity; 2.5 corresponds to a degree of coloration intermediate between scores 2 and 3; 3 corresponds to intense coloration; 3.5 corresponds to a degree of coloration intermediate between scores 3 and 4; 4 corresponds to very intense coloration
Description: (§1) In Table 1 above, as in the following Tables, C represents the color of the colonies after incubation, I represents the intensity of the color, and the symbol “-” corresponds to the absence of color or intensity; finally, IT defines the incubation time. It should be noted that the intensity of the color is scored on an arbitrary scale but one which is consistent for all the biological specimens and media tested. This scale is valid for this experiment as well as all those that follow. It can be defined in the following way: • 0 corresponds to no activity, • 0.1 corresponds to a trace of color, • 0.5 corresponds to very pale coloration, • 1 corresponds to clear but low-intensity coloration, • 1.5 corresponds to a degree of coloration intermediate between scores 1 and 2, • 2 corresponds to clear coloration of moderate intensity, • 2.5 corresponds to a degree of coloration intermediate between scores 2 and 3, • 3 corresponds to intense coloration, • 3.5 corresponds to a degree of coloration intermediate between scores 3 and 4, • 4 corresponds to very intense coloration.
(§2) A stock solution of each substrate at a concentration of 40 g/l was made up in a mixture of 40% Dimethylsulfoxide and 60% Tween 20. An appropriate volume was added to four Columbia-type media while cooling to give a final substrate concentration of 250 mg/l. These dishes were divided into three areas and then each area was inoculated with a suspension (density=0.5 McFarland) of microorganisms taken from either the Applicant's own collection or the ATCC. The dishes were incubated for 48 hours at 37° C. The colonies which grew were examined by eye after 24 and 48 hours of incubation. Both the color and the intensity of the color of the colonies were recorded.

Listeria innocua 166 = experiment: as above; parameters: key: —: the symbol “-” corresponds to the absence of color or intensity; 0 corresponds to no activity; 0.1 corresponds to a trace of color; 0.5 corresponds to very pale coloration; 1 corresponds to clear but low-intensity coloration; 1.5 corresponds to a degree of coloration intermediate between scores 1 and 2; 2 corresponds to clear coloration of moderate intensity; 2.5 corresponds to a degree of coloration intermediate between scores 2 and 3; 3 corresponds to intense coloration; 3.5 corresponds to a degree of coloration intermediate between scores 3 and 4; 4 corresponds to very intense coloration
Description: as §1, §2

Listeria innocua 171 = experiment: as above; parameters: key: —: the symbol “-” corresponds to the absence of color or intensity; 0 corresponds to no activity; 0.1 corresponds to a trace of color; 0.5 corresponds to very pale coloration; 1 corresponds to clear but low-intensity coloration; 1.5 corresponds to a degree of coloration intermediate between scores 1 and 2; 2 corresponds to clear coloration of moderate intensity; 2.5 corresponds to a degree of coloration intermediate between scores 2 and 3; 3 corresponds to intense coloration; 3.5 corresponds to a degree of coloration intermediate between scores 3 and 4; 4 corresponds to very intense coloration
Description: as §1, §2

[1] = tested on: Listeria monocytogenes ATCC 19115; experiment: Experiment 1: esterase substrates, same chromogenic marker, fatty acids of different chain lengths; parameters: key to I (intensity of the color): —: the symbol “-” corresponds to the absence of color or intensity; 0 corresponds to no activity; 0.1 corresponds to a trace of color; 0.5 corresponds to very pale coloration; 1 corresponds to clear but low-intensity coloration; 1.5 corresponds to a degree of coloration intermediate between scores 1 and 2; 2 corresponds to clear coloration of moderate intensity; 2.5 corresponds to a degree of coloration intermediate between scores 2 and 3; 3 corresponds to intense coloration; 3.5 corresponds to a degree of coloration intermediate between scores 3 and 4; 4 corresponds to very intense coloration
Description: as §2, with “Polyoxyethylenesorbitan Monolaurate (Tween 20).” for “Tween 20.”, “three” for “four”
as §1

[2] = tested on: Listeria monocytogenes 092; experiment: as above; parameters: key to I (intensity of the color): —: the symbol “-” corresponds to the absence of color or intensity; 0 corresponds to no activity; 0.1 corresponds to a trace of color; 0.5 corresponds to very pale coloration; 1 corresponds to clear but low-intensity coloration; 1.5 corresponds to a degree of coloration intermediate between scores 1 and 2; 2 corresponds to clear coloration of moderate intensity; 2.5 corresponds to a degree of coloration intermediate between scores 2 and 3; 3 corresponds to intense coloration; 3.5 corresponds to a degree of coloration intermediate between scores 3 and 4; 4 corresponds to very intense coloration
Description: as §2, with “Polyoxyethylenesorbitan Monolaurate (Tween 20).” for “Tween 20.”, “three” for “four”
as §1

[3] = tested on: Listeria monocytogenes ATCC 19117; experiment: as above; parameters: key to I (intensity of the color): —: the symbol “-” corresponds to the absence of color or intensity; 0 corresponds to no activity; 0.1 corresponds to a trace of color; 0.5 corresponds to very pale coloration; 1 corresponds to clear but low-intensity coloration; 1.5 corresponds to a degree of coloration intermediate between scores 1 and 2; 2 corresponds to clear coloration of moderate intensity; 2.5 corresponds to a degree of coloration intermediate between scores 2 and 3; 3 corresponds to intense coloration; 3.5 corresponds to a degree of coloration intermediate between scores 3 and 4; 4 corresponds to very intense coloration
Description: as §2, with “Polyoxyethylenesorbitan Monolaurate (Tween 20).” for “Tween 20.”, “three” for “four”
as §1

| Structure (SMILES) | C (color of the colonies) (Listeria ivanovii 025; IT 24 h) | I (intensity of the color) (Listeria ivanovii 025; IT 24 h) | C (color of the colonies) (Listeria ivanovii 025; IT 48 h) | I (intensity of the color) (Listeria ivanovii 025; IT 48 h) | C (color of the colonies) (Listeria innocua 166; IT 24 h) | I (intensity of the color) (Listeria innocua 166; IT 24 h) | C (color of the colonies) (Listeria innocua 166; IT 48 h) | I (intensity of the color) (Listeria innocua 166; IT 48 h) | C (color of the colonies) (Listeria innocua 171; IT 24 h) | I (intensity of the color) (Listeria innocua 171; IT 24 h) | C (color of the colonies) (Listeria innocua 171; IT 48 h) | I (intensity of the color) (Listeria innocua 171; IT 48 h) | C (color of the colonies) ([1]; IT 24 h) | I (intensity of the color) ([1]; IT 24 h) | C (color of the colonies) ([1]; IT 48 h) | I (intensity of the color) ([1]; IT 48 h) | C (color of the colonies) ([2]; IT 24 h) | I (intensity of the color) ([2]; IT 24 h) | C (color of the colonies) ([2]; IT 48 h) | I (intensity of the color) ([2]; IT 48 h) | further results |
| --- | --- | --- | --- | --- | --- | --- | --- | --- | --- | --- | --- | --- | --- | --- | --- | --- | --- | --- | --- | --- | --- |
| CCCCCCCC(=O)Oc1c[nH]c2cc(Cl)ccc12 [Pink-C8, 6-Chloro-3-indolyl octanoate] | — | — | — | — | — | — | pink | 0.3 | — | — | pink | 0.3 |  |  |  |  |  |  |  |  |  |
| CCCCCCCC(=O)Oc1c[nH]c2ccc(Br)c(Cl)c12 [X-C8, 5-Bromo-4-chloro-3-indolyl octanoate] | — | — | — | — | turquoise | 0.3 | turquoise | 0.5 |  | — | turquoise | 0.3 |  |  |  |  |  |  |  |  |  |
| CCCCCCCCCC(=O)Oc1c[nH]c2ccc(Br)cc12 [Blue-C10, 5-Bromo-3-indolyl decanoate] |  |  |  |  |  |  |  |  |  |  |  |  | gray | 0.5 | gray | 1 | gray | 1 | gray | 2 | C (color of the colonies) ([3]; IT 24 h): gray; I (intensity of the color) ([3]; IT 24 h): 0.5; C (color of the colonies) ([3]; IT 48 h): gray; I (intensity of the color) ([3]; IT 48 h): 1 |
| CCCCCCCC(=O)Oc1c[nH]c2ccc(Br)cc12 [Blue-C8, 5-Bromo-3-indolyl octanoate] | — | — | — | — | gray | 0.3 | gray | 1 | — | — | gray | 0.3 | gray | 1 | gray | 2 | gray | 1.5 | gray | 2.5 | C (color of the colonies) ([3]; IT 24 h): gray; I (intensity of the color) ([3]; IT 24 h): 1; C (color of the colonies) ([3]; IT 48 h): gray; I (intensity of the color) ([3]; IT 48 h): 2 |
| CCCCCCCCC(=O)Oc1c[nH]c2ccc(Br)cc12 [Blue-C9, 5-Bromo-3-indolyl nonanoate] |  |  |  |  |  |  |  |  |  |  |  |  | gray | 1 | gray | 2 | gray | 1 | gray | 2 | C (color of the colonies) ([3]; IT 24 h): gray; I (intensity of the color) ([3]; IT 24 h): 1; C (color of the colonies) ([3]; IT 48 h): gray; I (intensity of the color) ([3]; IT 48 h): 1.5 |
| CCCCCCCC(=O)Oc1c[nH]c2cc(Cl)c(Br)cc12 [Magenta-C8, 5-Bromo-6-chloro-3-indolyl octanoate] | — | — | — | — | purple | 2 | purple | 3 | purple | 0.5 | purple | 3 |  |  |  |  |  |  |  |  |  |
